Assay results: US9845321B2, “1,3-dihydro-2H-benzimidazol-2-one derivatives substituted with heterocycles as respiratory syncytial virus antiviral agents” (JANSSEN SCIENCES IRELAND UC, priority 2012, dated 2017)

Experiments:
rgRSV224 virus = test: Antiviral activity: rgRSV224 (GFP-expressing RSV) replication in HeLa cells, GFP expression measured three days post-virus exposure; type: cell-based; conditions: human respiratory syncytial virus, 72 h, read-out: WT activity pEC50 (converted)
Procedure: (§1) Black 96-well clear-bottom microtiter plates (Corning, Amsterdam, The Netherlands) were filled in duplicate using a customized robot system with serial 4-fold dilutions of compound in a final volume of 50 μl culture medium [RPMI medium without phenol red, 10% FBS, 0.04% gentamycin (50 mg/ml) and 0.5% DMSO]. Then, 100 μl of a HeLa cell suspension (5×10^4 cells/ml) in culture medium was added to each well followed by the addition of 50 μl rgRSV224 (MOI=0.02) virus in culture medium using a multidrop dispenser (Thermo Scientific, Erembodegem, Belgium). rgRSV224 virus is an engineered virus that includes an additional GFP gene (Hallak et al, 2000) and was in-licensed from the NIH (Bethesda, Md., USA). Medium, virus- and mock-infected controls were included in each test. Cells were incubated at 37° C. in a 5% CO2 atmosphere. Three days post-virus exposure, viral replication was quantified by measuring GFP expression in the cells by a MSM laser microscope (Tibotec, Beerse, Belgium). The EC50 was defined as the 50% inhibitory concentration for GFP expression. In parallel, compounds were incubated for three days in a set of white 96-well microtitier plates (Corning) and the cytotoxicity of compounds in HeLa cells was determined by measuring the ATP content of the cells using the ATPlite kit (PerkinElmer, Zaventem, Belgium) according to the manufacturer's instructions. The CC50 was defined as the 50% concentration for cytotoxicity.

in vitro = type: cell-based; conditions: human
Procedure: as §1

Cn1ccc(-n2c(=O)n(Cc3cc4cc(Cl)ccc4n3CCCCF)c3cnccc32)n1 [Compound P38, 3-((5-chloro-1-(4-fluorobutyl)-1H-indol-2-yl)methyl)-1-(1-methyl-1H-pyrazol-3-yl)-1H-imidazo[4,5-c]pyridin-2(3H)-one]
EC50 (rgRSV224 virus): 1.58 nM
CC50 at 3 days (in vitro): > 100000 nM
melting point: 169.3 °C

CC(C)(C)OC(=O)N1CC(n2c(=O)n(Cc3cc4cc(Cl)ccc4n3CCCS(C)(=O)=O)c3cc(F)ccc32)C1 [Compound P2, tert-butyl 3-(3-((5-chloro-1-(3-(methylsulfonyl)propyl)-1H-indol-2-yl)methyl)-5-fluoro-2-oxo-2,3-dihydro-1H-benzo[d]imidazol-1-yl)azetidine-1-carboxylate]
EC50 (rgRSV224 virus): 12.6 nM
CC50 at 3 days (in vitro): 10000 nM
melting point: 185 °C

CC(C)CCn1c(Cn2c(=O)n(-c3nccs3)c3ccncc32)nc2nc(Cl)ccc21 [Compound P22, 3-((5-chloro-1-isopentyl-1H-imidazo[4,5-b]pyridin-2-yl)methyl)-1-(thiazol-2-yl)-1H-imidazo[4,5-c]pyridin-2(3H)-one]
EC50 (rgRSV224 virus): 3.98 nM
CC50 at 3 days (in vitro): 25100 nM
melting point: 231.23 °C

COc1ccc(-n2c(=O)n(Cc3cc4cc(Cl)ccc4n3CCCC#N)c3cnccc32)cc1OC [Compound P19, 4-(5-chloro-2-((1-(3,4-dimethoxyphenyl)-2-oxo-1H-imidazo[4,5-c]pyridin-3(2H)-yl)methyl)-1H-indol-1-yl)butanenitrile]
EC50 (rgRSV224 virus): 0.126 nM
CC50 at 3 days (in vitro): > 100000 nM
melting point: 176.51 °C

CC(C)CCn1c(Cn2c(=O)n(-c3nccs3)c3ccc(F)cc32)nc2nc(Cl)ccc21 [Compound P25, 3-((5-chloro-1-isopentyl-1H-imidazo[4,5-b]pyridin-2-yl)methyl)-5-fluoro-1-(thiazol-2-yl)-1H-benzo[d]imidazol-2(3H)-one]
EC50 (rgRSV224 virus): 15.8 nM
CC50 at 3 days (in vitro): > 50100 nM
melting point: 264.42 °C
